Experimental findings from US5861424A, “Composition and method for treating cancer” (priority 1995, dated 1999) are described below.

One data set relates to human melanoma LOX. The experiment in a line: Survival of nude mice implanted with human melanoma LOX. The data set is classed as in vivo, human melanoma in male athymic Swiss nu/nu mouse. The settings on record: Mus musculus, ip, 24 h, read-out: T/C (survival). On the procedure:
LOX, a human melanoma cell line, grown subcutaneously in nude mice was excised, trypsinized to yield a single cell suspension using a metal grid with a […]. Red blood cells were lysed by incubation with 0.17 molar ammonium chloride at 4° C. for 20 minutes. Five million viable trypan blue negative cells made up in 0.1 ml of Dulbecco modified Eagles' medium (DME) were injected into the peritoneal cavity of a male athymic Swiss nu/nu mouse. The control group and each treatment group consisted of 5 to 10 mice. Treatment was commenced the following day by intraperitoneal injection.
Ten control mice received 0.25 ml of 2% dextrose on those days the treated groups were injected with the compounds of this invention. The compounds of the General Formulas. (1) to (6) used in this invention which were tested are listed in Table VIII below and the results obtained are shown in Table VIII and FIG. 1-6 of the accompanying drawings. T/C is the ratio, expressed as a percentage of the mean survival age of the treated group to the mean survival age of the untreated control group.

Data set [1] relates to human colon carcinoma CX-1. As to the kind of experiment: Anti-human colon carcinoma CX-1 activity in nude mice, tumor inhibition. The data set is classed as in vivo, human colon carcinoma in Swiss nu/nu mice. The following applies: Mus musculus, ip, 24 h. The source says: Human colon carcinoma cell line CX-1 has been chosen by the National Cancer Institute as a mode for cancer drug screening (NCI Protocol 3C2H2). It was established in culture from the surgical explant of the primary colon adenocarcinoma of a person with no previous chemotherapy. The cultured CX-1 cells, upon subcutaneous injection, can grow readily in nude mice as a moderately- to well-differentiated human colon carcinoma. CEA is expressed as expected for differentiated colon carcinoma cells. Abundant keratin, consistent with epithelial origin, is present. Increased uptake and prolonged retention of delocalized lipophilic cations are observed.
Swiss nu/nu mice obtained from Taconic Farm were housed in a pathogen-free environment. Tumors subcutaneously passaged in nude mice were excised under sterile conditions and converted to a single cell suspension using a metal grid with a 0.4 mm mesh. Red blood cells were lysed by incubation with 0.17M ammonium chloride at 4° C. for 20 minutes. Cells were scored for viability with trypan blue. Viable CX-1 cells (2.5 million) made up in 0.1 ml of cell culture medium were injected subcutaneously into each nude mouse. The mice were randomly allocated into a control group (five mice) and a treatment group (five mice per group). The drug treatment was commenced the next day. Doses and schedules were developed empirically and were based mainly on information on LD50 and LD10 obtained from preliminary toxicity studies. The control group received an equivalent volume of hydroxylpropyl-β-cyclodextrin-5% glucose solution.
The pharmaceutical compositions tested comprised solutions in 5% glucose subjected to sonication at concentrations of 1 mg/ml. Those compounds which were not completely dissolved by this procedure were dissolved in hydroxypropyl-β-cyclodextrin using the following method. Hydroxypropyl-β-cyclodextrin (45 g) was mixed with 100 ml of sterilized, double distilled water and stirred for four hours. Each of the compounds to be tested (20 mg) was mixed with 10 ml of hydroxypropyl-β-cyclodextrin solution and sonicated for 60 minutes in the dark. This solution was then diluted in 5% glucose to yield a final compound concentration of 0.5 mg/ml, and further sonicated for 60 minutes in the dark to assure that the compound was completely dissolved.
When the growth of tumors in the control group reached the exponential phase and the size of the tumor was palpable (usually 20 to 30 days after tumor implantation), the experiments were terminated. Tumors in each mouse were excised and weighed using an analytical balance. Total tumor weight in each group from five mice was calculated. Per cent tumor inhibition between the treated group and the control group was then calculated for each group.

Data set [2] relates to human ovarian carcinoma OVCAR-3. The experiment in a line: Survival of nude mice implanted with human ovarian carcinoma OVCAR-3. The data set is classed as in vivo, human ovarian carcinoma in athymic Swiss nu/nu mice. Here is the method:
A human ovarian carcinoma cell line, OVCAR-3, was used. Ten million cells of this cell line were injected IP into ten athymic Swiss nu/nu mice. Ten mice into which these cancer cells had been injected were selected as a control group and received in equal volume of 5% dextrose as that of the treated group. The compounds of the General Formulas (1) to (6) which were tested and the results obtained are shown in Table IX below and in FIG. 7-9 of the accompanying drawings.

The next data set relates to normal nude mice. The experiment in a line: Toxicity to normal nude mice.
Data set [3] concerns normal monkey kidney epithelial cell line CV-1. As to the kind of experiment: Colony formation assay, normal monkey kidney epithelial cells CV-1.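 Note: colonies visualized by crystal violet staining, incubation at 37 °C, IC50 relative to untreated wells given culture medium alone.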 The following applies: Primates, Epithelial cell.
In data set [4] the test system is human colon carcinoma cell line CX-1. As to the kind of experiment: Colony formation assay, human colon carcinoma CX-1. The data set is classed as cell-based. The settings on record: for IC50: Homo sapiens, Colon carcinoma cell, 24 h treatment, colony count after 7 to 10 days; for Selectivity (ratio of IC50 for CV-1 and IC50 for CX-1): CV-1/CX-1.
Description: Human colon carcinoma cell line CX-1 or normal monkey kidney epithelial cell line CV-1 was chosen as representatives of cancer cells and normal cells, respectively. […] CX-1 cells (2,000 cells/well) and CV-1 cells (1,000 cells/well) were plated in 24-well plastic culture plates. […] The control received culture media only. Cells were treated with compounds of General Formulas (1) to (6) at 37° C. for 24 hours. After rinsing with fresh culture medium three times, the cells were further incubated at 37° C. for 7 to 10 days. Cell colonies were fixed and stained with 2% crystal violet in 70% ethanol for 10 minutes and rinsed in water. […] The selectivity is defined as the ratio of IC50 for CV-1 and IC50 for CX-1.
Data set [5] deals with human bladder carcinoma EJ cell line. As to the kind of experiment: Colony formation assay, human bladder carcinoma EJ. The data set is classed as cell-based. The following applies: Table IV. The source says:
(§1) The control received culture media only.

Data set [6] relates to human breast carcinoma MCF-7 cell line. The experiment in a line: Colony formation assay, human breast carcinoma MCF-7. The settings on record: Table VI. The data set is classed as cell-based.
Description: as §1
The Selectivity values, MCF-7 values and CV-1 values for compounds of the General Formulas (1) to (6) used in the present invention are shown in Table VI below.

The test system of data set [7] is human melanoma LOX cell line. The experiment in a line: Colony formation assay, human melanoma LOX. The data set is classed as cell-based. The following applies: Table V.
Description: as §1

Data set [8] relates to human pancreatic carcinoma CRL 1420 cell line. The experiment in a line: Colony formation assay, human pancreatic carcinoma CRL 1420. The settings on record: Table VII. The data set is classed as cell-based.
Description: as §1
The Selectivity values, CRL 1420 values and CV-1 values for compounds of the General Formulas (1) to (6) used in the present invention are shown in Table VII below.

The mark [9] stands for this setting: read-out: CV-1 (IC50), Table III, 24 h treatment, colony count after 7 to 10 days.
The mark [10] stands for this setting: Table III, read-out: CX-1 (IC50).

Each structure is given as a SMILES string. Like-named read-outs stand apart in the source and are kept apart here. Bounds are passed on as bounds.

`CCN1CCSC1=CC=c1sc(=Cc2sc3c4ccccc4ccc3[n+]2CC)n(CC)c1=O` [Compound 116]: in the data set on human melanoma LOX (5 mg/kg, i.p. on day 1, 5, 9, 13, 17, 22), the response vs control in vivo at 5 mg/kg stood at 582%. Further, testing at 5 mg/kg in data set [1] (5 mg/kg, i.p. on day 1, 6, 10, 14, 19, 23) gave an inhibition in vivo of 77%. In addition, in data set [2] (5 mg/kg, i.p. on day 1, 5, 9, 14, 19, 23, 27, 48), the “T/C (survival)” value is reported as more than 378%.

Take `CCN1/C(=C/C=C/c2sc3c4ccccc4ccc3[n+]2CC)Sc2c1ccc1ccccc21` [C, reference compound]: the “toxicity to normal nude mice” value in the data set with normal nude mice is on record as “highly toxic to normal nude mice”. The half-inhibitory concentration (IC50) (in general, the concentration that gives 50% inhibition) in [3] (setting [9]) is less than 0.1 µg/mL; in data set [4] (setting [10]) it was 0.05 µg/mL.

Turning to `C=CCn1c(=Cc2sc3c4ccccc4ccc3[n+]2CC)sc(=CC=C2C=CN(CC)c3ccccc32)c1=O` [Compound 290], the results for the half-maximal inhibitory concentration (IC50) in data set [3] (setting [9]) and in data set [4] (setting [10]) were 2.5 µg/mL and 0.025 µg/mL, respectively. In addition, the “Selectivity (ratio of IC50 for CV-1 and IC50 for CX-1)” value in data set [4] (Table III) is given as 100. The “T/C (survival)” value in [2] (2 mg/kg, i.p. on day 1, 5, 9, 18, 48) is 356%.

Regarding `CCN1C(=CC=c2sc(=Cc3cc[n+](CC)c4ccccc34)n(CC)c2=O)C=Cc2ccccc21` [Compound 247], in the data set with human melanoma LOX (i.p. on day 1, 2, 3, 4, 8, 9), the response vs control in vivo at 20 mg/kg amounted to 227%. In addition, the IC50 came to 20 µg/mL in [3] (setting [9]) and 0.1 µg/mL in data set [4] (read-out: CX-1 (IC50), Table III). For the same compound, the inhibition in vivo (commonly the change of the read-out against control, counted positive when it falls) at 20 mg/kg in data set [1] (i.p. on day 1, 5, 11, 15, 20, 26, 34) was 75%. In data set [4] (Table III), the “Selectivity (ratio of IC50 for CV-1 and IC50 for CX-1)” value is recorded as 200. For the same compound, in [2] (20 mg/kg, i.p. on day 1, 5, 9, 14, 23, 48), the “T/C (survival)” value is given as more than 378%.

With `CCN1/C(=C/C=C/c2sc3ccccc3[n+]2CC)Sc2ccccc21` [B, reference compound], the “toxicity to normal nude mice” value with normal nude mice is reported as “highly toxic to normal nude mice”. Besides, in data set [3] (setting [9]), the half-maximal inhibitory concentration (IC50) worked out at 0.6 µg/mL.

In the case of `CCN1C(=CC=c2sc(=Cc3sc4c([n+]3CC)CCCC4)n(CC)c2=O)Oc2ccccc21` [Compound A, reference compound], the “toxicity to normal nude mice” value in the data set on normal nude mice is “less toxic to normal nude mice”. The half-inhibitory concentration (IC50) in data set [3] (setting [9]) came to 2 µg/mL; in data set [4] (setting [10]), 0.04 µg/mL.

As for `CCN1C(=CC=c2sc(=Cc3sc4c5ccccc5ccc4[n+]3C)n(C)c2=O)Sc2ccc3ccccc3c21` [Compound 46], the concentration for half-maximal inhibition (IC50) in data set [5] (Homo sapiens, EJ, 24 h, 24 h treatment, read-out: EJ (IC50)) stood at 0.082 µg/mL; in [3] (setting [9]), 20 µg/mL; in data set [3] (read-out: CV-1 (IC50), Table IV) it was 20 µg/mL; in [3] (read-out: CV-1 (IC50), Table V), 20 µg/mL; in [3] (read-out: CV-1 (IC50), Table VI), 20 µg/mL; in data set [3] (read-out: CV-1 (IC50), Table VII) it was 20 µg/mL. Further, the concentration for half-maximal inhibition (IC50) came to 0.082 µg/mL in data set [6] (Homo sapiens, MCF7, 24 h, 24 h treatment, read-out: MCF-7 (IC50)); 0.05 µg/mL in data set [4] (setting [10]); 0.064 µg/mL in data set [7] (Homo sapiens, LOX, 24 h, 24 h treatment, read-out: LOX (IC50)); 0.064 µg/mL in data set [8] (Homo sapiens, 24 h, 24 h treatment). For the same compound, in data set [5] (CV-1/EJ), the “Selectivity (CV-1 IC50 / EJ IC50)” value is recorded as 244. In the data set with human melanoma LOX (i.p. on day 1, 3, 6, 9, 13, 16), the response vs control in vivo at 20 mg/kg came to 222%. Also, the “Selectivity (CV-1 IC50 / MCF-7 IC50)” value in data set [6] (CV-1/MCF-7) came to 244. The same compound showed an inhibition in vivo at 20 mg/kg in data set [1] (i.p. on day 1, 5, 7, 9) of 60.1%. In addition, the “Selectivity (ratio of IC50 for CV-1 and IC50 for CX-1)” value in data set [4] (Table III) is reported as 400. Further, in data set [7] (CV-1/LOX), the “Selectivity (CV-1 IC50 / LOX IC50)” value stood at 312. Moreover, the “Selectivity (CV-1 IC50 / CRL-1420 IC50)” value in data set [8] (CV-1/CRL-1420) is 312.
